Paper PMC6967409 (Frontiers in Chemistry, 2020)
In brackets after ≈: the same amount, converted by molar mass. Several values for one entry are separate records, joined by “and”; a condition that tells them apart may be missing. Identical values can stand only once. Like-named read-outs stand apart in the source and are kept apart here.

Experiments:
[1] = test system: Pf CamWT, Cam3.II, CamWTC580Y, Cam3.IIC580Y, Cam3.IIRev; design: method as in Lanteri et al., 2014; settings: ref Lanteri et al., 2014; read-out: mean IC50 across CamWT, Cam3.II and K13 transfected strains; cited from earlier work
P. falciparum W2 [2] = test system: P. falciparum W2; design: method as in Coertzen et al. (2018); settings: SYBR Green I; ref Coertzen et al. (2018); read-out: Proliferative IC50 W2; cited from earlier work
P. falciparum W2 [3] = test system: P. falciparum W2; design: method as in Lanteri et al., 2014; settings: ref Lanteri et al., 2014; read-out: mean IC50 against W2; cited from earlier work
P. falciparum K1 [4] = test system: P. falciparum K1; design: method as in Coertzen et al. (2018); settings: SYBR Green I; ref Coertzen et al. (2018); read-out: Proliferative IC50 K1; cited from earlier work
P. falciparum NF54 [5] = test system: P. falciparum NF54; design: method as in Coertzen et al. (2018); settings: SYBR Green I; ref Coertzen et al. (2018); read-out: Proliferative IC50 NF54; cited from earlier work
[6] = test system: P. berghei ANKA GFP-Luc-SMcon sporozoites; assay: P. berghei-luciferase liver stage bioluminescence assay (causal prophylactic mode) in HepG2-CD81 cells; assay type: cell-based, Plasmodium berghei; settings: for Emax: 48 h, read-out: P.berghei-Luciferase Liver Stage Bioluminescence Assay: Maximum measured (%); for inhibition at 10 µM: read-out: P. berghei sporozoites Maximum inhibition %
Procedure, shortened: (§1)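 HepG2-CD81 cells seeded onto compounds in DMSO, infected with P. berghei luciferase-expressing sporozoites; liver-stage growth read as luciferase bioluminescence after BrightGlo luciferin addition. Cytotoxicity measured in parallel on uninfected HepG2 plates via CellTiterGlo ATP luminescence.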

P. falciparum NF54 [7] = test system: P. falciparum NF54; design: method as in Coertzen et al. (2018); settings: pLDH, 48 h; ref Coertzen et al. (2018); read-out: Metabolic IC50 NF54; cited from earlier work
[8] = test system: P. falciparum NF54 early stage gametocytes (>90% stage I–III); design: method as in Coertzen et al. (2018); settings: read-out: Early Stage (EG, Luc 48 h) IC50; >90% stage I–III gametocytes; ref Coertzen et al. (2018); cited from earlier work
P. falciparum W2 [9] = assay: T0 [3H]-hypoxanthine drug susceptibility assay; assay type: cell-based; settings: Plasmodium falciparum; for IC50: W2, read-out: W2 IC50; for IC90: W2, read-out: W2 IC90
HepG2 cells [10] = assay: HepG2 cytotoxicity bioluminescence assay (CellTiterGlo, ATP); assay type: cell-based, human; settings: for IC50 / HepG2 Cytotoxicity Bioluminescence Assay: Maximum measured (%): two biological replicates listed in one cell
Procedure, shortened: as §1

[11] = as above; assay type: cell-based, human; settings: human, uninfected HepG2-CD81 cells; for IC50 at 72 h: two biological replicates listed in one cell; for EC50 at 72 h: uninfected HepG2, ATP bioluminescence
Procedure, shortened: as §1

[12] = test system: P. falciparum NF54 late stage gametocytes (>90% stage IV and V); design: method as in Coertzen et al. (2018); settings: read-out: Late Stage (LG, Luc 72 h) IC50; >90% stage IV and V gametocytes; ref Coertzen et al. (2018); cited from earlier work
[13] = test system: Chinese hamster ovarian (CHO) cells; settings: read-out: Cytotoxicity EC50 CHO; MTT assay; ref Coertzen et al. (2018); cited from earlier work
[14] = test system: P. falciparum PL08-009 (5C); assay: T0 [3H]-hypoxanthine drug susceptibility assay, artemisinin-resistant clone (C580Y); assay type: cell-based, Plasmodium falciparum; settings: preliminary, W2 as comparative sensitive strain
[15] = test system: P. falciparum ARC08-22 (4G); assay: as above; assay type: cell-based, Plasmodium falciparum; settings: preliminary, W2 as comparative sensitive strain
P. falciparum Dd2 [16] = test system: P. falciparum Dd2; design: method as in Coertzen et al. (2018); settings: pLDH, 48 h; ref Coertzen et al. (2018); read-out: Metabolic IC50 Dd2; cited from earlier work
HepG2 cells [17] = settings: read-out: Cytotoxicity EC50 HepG2; ref Coertzen et al. (2018); cited from earlier work
P. falciparum NF54 [18] = assay: Metabolic (parasite LDH) assay, asexual ring stage parasites, 48 h; assay type: cell-based; settings: Plasmodium falciparum, pLDH, CQ-sensitive NF54
Procedure, shortened: (§2)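 Synchronized ring-stage (>95%) parasites in human erythrocytes were treated with two-fold dilutions at 37 °C under 90% N2/5% CO2/5% O2, with DMSO <0.1%. SYBR Green I fluorescence was read after 96 h (1% parasitemia, 1% hematocrit). pLDH activity was read after 48 h (1.5–2% parasitemia, 2% hematocrit).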

[19] = test system: P. falciparum stage III/IV/V and mature stage V (>95% stage V) gametocytes; assay: Stage-specificity and kill kinetics against late stage gametocytes, luciferase reporter line; assay type: cell-based; settings: Plasmodium falciparum, 72 h treatment
Procedure: Late stage gametocytes, stage III, IV/V (10% stage III, 50% stage IV, 40% stage V population on day 10 post-induction) or mature stage V (>95% stage V on day 13 post-induction) were used to determine the differential stage specificity and kill kinetics (speed-of-action) of the compounds. Dose responses were determined using the luciferase reporter line, exposed to 10-fold serial drug dilutions for 72 h at 37°C under 90% N2, 5% CO2, and 5% O2 atmospheric conditions. […] Additionally, a drug washout step was included by replacing the drug-containing spent medium with fresh media (without drug) followed by a further 24 h incubation prior to measuring luciferase activity. […] Data are the average from a single independent biological experiment with technical triplicates, error bars indicate ±SD.

[20] = test system: P. falciparum NF54 early stage gametocytes (>90% stage I–III); assay: Gametocytocidal luciferase reporter assay, early stage, 48 h; assay type: cell-based; settings: Plasmodium falciparum, NF54, 48 h, read-out: Early Stage (EG, Luc 48 h) IC50
Procedure, shortened: (§3)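 Luciferase reporter P. falciparum line; gametocyte cultures treated with 50 mM NAG to remove asexual parasites. Early gametocytes (day 5, stage I–III) exposed 48 h to two-fold dilutions; late (day 10, stage IV–V) 72 h to 10-fold dilutions; 2% gametocytemia, 2% hematocrit, 37°C, 90% N2/5% CO2/5% O2.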

[21] = test system: P. falciparum NF54 late stage gametocytes (>90% stage IV and V); assay: Gametocytocidal luciferase reporter assay, late stage, 72 h; assay type: cell-based, Plasmodium falciparum
Procedure, shortened: as §3

P. falciparum Dd2 [22] = assay: Metabolic (parasite LDH) assay, asexual ring stage parasites, 48 h; assay type: cell-based; settings: Plasmodium falciparum, pLDH, Dd2 CQ, pyrimethamine resistant
Procedure, shortened: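 Two-fold serial dilutions on >95% ring-stage Dd2 parasites (1.5–2% parasitemia, 2% hematocrit) in Albumax II RPMI, final DMSO <0.1%, at 37°C under 90% N2/5% CO2/5% O2. Parasite LDH activity read after 48 h drug exposure for dose-response.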

[23] = Cytotoxicity, Cytoselect LDH cytotoxicity assay kit; assay type: cell-based; settings: human, HepG2 cells
Procedure: (§4) Cytotoxicity (EC50) was determined against Chinese hamster ovarian (CHO) using a 3-(4,5-dimethylthiazol-2-yl)-2,5-diphenyltetrazolium bromide (MTT) assay and hepatocellular carcinoma cells (HepG2) using the Cytoselect LDH cytotoxicity assay kit (Cell Biolabs).

[24] = test system: asexual P. falciparum NF54, Dd2, K1, W2; assay: Asexual P. falciparum, metabolic (pLDH) and proliferative (SYBR Green I) platforms; assay type: cell-based; settings: Plasmodium falciparum; read-out: IC50 for drug sensitive NF54 parasites across both assay platforms
Procedure: Data analysis was performed using GraphPad Prism 7.
The in vitro activities of the new derivatives were determined against drug sensitive NF54 and multi-drug resistant Dd2, K1, and W2 intraerythrocytic asexual P. falciparum malaria parasite strains using both a metabolic (parasite LDH) and a proliferative (SYBR Green I fluorescence) assay readout (Table 1).

Cytotoxicity, MTT assay = assay type: cell-based; settings: Chinese hamster, CHO cells
Procedure: as §4

P. falciparum NF54 [25] = assay: Proliferative (SYBR Green I) assay, asexual parasites, 96 h; assay type: cell-based; settings: Plasmodium falciparum, ±SEM
Procedure, shortened: as §2

P. falciparum K1 [26] = assay: as above; assay type: cell-based; settings: Plasmodium falciparum, ±SEM
Procedure, shortened: as §2

P. falciparum W2 [27] = assay: as above; assay type: cell-based; settings: Plasmodium falciparum, ±SEM
Procedure, shortened: as §2

[28] = design: method as in Haynes et al., 2006; settings: ref Haynes et al., 2006; cited from earlier work
[29] = Plasmodium berghei, two biological replicates listed in one cell
[30] = Plasmodium berghei, HepG2, 48 h, liver stage, HepG2 host cells, luciferase after 48 h, ±SD, read-out: P. berghei sporozoites IC50
[31] = Plasmodium berghei, two biological replicates listed in one cell, read-out: P.berghei-Luciferase Liver Stage Bioluminescence Assay: IC50

Row | SMILES | IC50 (P. falciparum W2 [2]) [nM] | IC50 (P. falciparum K1 [4]) [nM] | IC50 (P. falciparum NF54 [5]) [nM] | Emax [6, 29] [%] | IC50 [6, 30] [nM] | IC50 [6, 31] [nM] | IC50 (P. falciparum NF54 [7]) [nM] | IC50 [8] [nM] | IC50 (P. falciparum W2 [9]) [nM] | IC90 (P. falciparum W2 [9]) [nM] | IC50 at 72 h [11] [nM] | EC50 at 72 h [11] [nM] | IC50 [12] [nM] | EC50 [13] [nM] | susceptibility of ARC08-22 (4G) clone (in words) [15] | IC50 (P. falciparum Dd2 [16]) [nM] | also measured
1 | C[C@H]1[C@H](N2CCS(=O)(=O)CC2)O[C@@H]2O[C@@]3(C)CC[C@H]4[C@H](C)CC[C@@H]1[C@@]24OO3 [Artemisone 8, artemisone] | 1.6 ± 0.4 | 1.01 ± 0.19 | 1.2 ± 0.4 | 92.1 | 28 | 27.4 | 3 ± 0.8 | 1.94 ± 0.11 | 1.69 ± 0.36 | 3.42 ± 0.45 | > 50000 | > 50000 | 42.4 ± 3.3 | > 249000 | no indication of reduced susceptibility | 2.7 ± 0.3 | IC50 [1]: 2.4 nM; IC50 (P. falciparum W2 [3]): 1.9 nM; inhibition at 10 µM ([6]; Plasmodium berghei): 93.3 ± 1.76%; inhibition of liver stage parasites ([6]; maintained down to 3 μM, 12-point titrations starting from 10 μM and […]): > 75%; IC50 ([6]; read-out: P. berghei sporozoites IC50, liver stage, HepG2 host cells, luciferase after 48 h, ±SD): 28.3 ± 1.27 nM; IC50 ([6]; two biological replicates listed in one cell, listed as 8 Artemisone (GC003), read-out: P.berghei-Luciferase Liver Stage Bioluminescence Assay: IC50): 29.2 nM; HepG2 cytotoxicity IC50 (in words) (HepG2 cells [10]; at 25 μM (artemiside 7) and 50 μM (artemisone 8)): no measurable IC50 values; IC50 (HepG2 cells [10]): > 50000 nM; HepG2 Cytotoxicity Bioluminescence Assay: Maximum measured (%) (HepG2 cells [10]; listed as 8 Artemisone (GC003)): 11.8% and 16.0%; susceptibility of PL08-009 (5C) clone (in words) [14]: no indication of reduced susceptibility
2 | CCN(CC)CCCC(C)Nc1ccnc2cc(Cl)ccc12 (stereo not drawn) [CQ, chloroquine] | – | 154 ± 14 | 10 ± 3 | – | – | – | 10 ± 1.6 | – | – | – | – | – | – | – | – | 251 ± 19.9 | EC50 (HepG2 cells [17]): 58.4 nM
3 | C[C@H]1[C@H](N2CCN(C(=O)c3ccc(F)cc3)CC2)O[C@@H]2O[C@@]3(C)CC[C@H]4[C@H](C)CC[C@@H]1[C@@]24OO3 [Compound 28] | – | – | – | 101 | 114 ± 15.6 | 103 | – | – | 0.1 ± 0.03 | 0.19 ± 0.02 | 10200 | 8320 | – | – | no indication of reduced susceptibility | – | IC50 (P. falciparum NF54 [18]): 1.06 ± 0.19 nM; IC50 [19]: < 10 nM; IC50 [20]: 19.5 ± 8.5 nM; IC50 ([21]; Plasmodium falciparum, NF54, 72 h, read-out: Late Stage (LG, Luc 72 h) IC50, >90% stage IV and V gametocytes, ±SEM): 0.4 to 0.7 nM; IC50 ([21]; read-out: Late Stage (LG, Luc 72 h) IC50, >90% stage IV and V gametocytes, ±SEM): 0.6 ± 0.3 nM; inhibition at 10 µM ([6]; Plasmodium berghei, Conc. 10 μM): 104 ± 4.24%; IC50 ([6]; two biological replicates listed in one cell, listed as 28 (WHN-14), read-out: P.berghei-Luciferase Liver Stage Bioluminescence Assay: IC50): 125 nM; IC50 (P. falciparum Dd2 [22]): 1.5 ± 0.6 nM; EC50 [23]: 190 nM; HepG2 Cytotoxicity Bioluminescence Assay: Maximum measured (%) (HepG2 cells [10]; listed as 28 (WHN-14)): 61.7% and 66.5%; IC50 (HepG2 cells [10]; listed as 28 (WHN-14)): 6440 nM; IC50 [24]: 1 to 2 nM; EC50 (Cytotoxicity, MTT assay): 190000 nM; IC50 (P. falciparum NF54 [25]): 2.8 ± 0.2 nM; IC50 (P. falciparum K1 [26]): 2.1 ± 1.1 nM; IC50 (P. falciparum W2 [27]): 2.7 ± 0.2 nM
4 | CC1CCC2C(C)C(NS(N)(=O)=O)OC3OC4(C)CCC1C32OO4 (stereo not drawn) [Sulfamide 11] | 2.04 ± 0.11 | 1.78 ± 0.26 | 3 ± 1 | – | – | – | 10.9 ± 3.4 | 15 ± 2 | 4.87 ± 0.59 | 7.53 ± 0.23 | – | – | 419 ± 59.5 | 56000 ± 4600 | – | 16.9 ± 2.6 | water solubility [28]: 294 µg/mL (≈ 811 µM)
